Here are results for two compounds from patent publication US20040029891A1, “Use of PDE5 inhibitors in the treatment of polycystic ovary syndrome” (Pfizer Inc., priority 2002, published 2004).

Experiment [1] concerns cattle. Description: Uterine horn histology (endometrial epithelial thickness) in cattle. Format: in vivo. Particulars: intra-vaginally twice daily, 30 days, relative to control animals (FIG. 4). As for the experimental part:
Oestrous was synchronised using two intramuscular injections of PGF2a (Lutalyse™) administered 11 days apart.
The pyrazolopyrimidinone PDE V inhibitor was administered intra-vaginally twice daily from day −3 of oestrus until day 6 of the following oestrus (30 days in total). Blood samples were collected daily, plasma was prepared as soon as possible and stored at −20° C. and then analysed for progesterone.
At the completion of the study (ie day 6 of the second oestrous period) the cattle were euthanised and the reproductive tract collected. A cross section of the left and right horns of each uterus was collected and stored in 10% Formalin and ten analysed histologically.

The test system of experiment [2] is ob/ob mice. Put plainly: Plasma triglycerides in ob/ob mice, 5 day dosing. Conditions: summary in words. Format: in vivo, mouse. The method, then: (§1) The selective pyrazolopyrimidinone PDEV inhibitor compounds to be tested were solubilized in 10% DMSO/0.1% pluronics and dosed via oral gavage using mouse oral feeding needles (20 gauge, Popper & Sons, Inc., New Hyde Park, N.Y.). A volume of 4 ml/kg weight was administered for each dose. Compounds were tested at doses ranging from 1-50 mg/kg. Alternatively, the test selective pyrazopyrimidinone PDEV inhibitor compound was administered in the drinking water and found to produce similar reductions in plasma glucose and triglycerides to the reductions observed for the same compound when administered by oral gavage. […]
(§2) Mice were allowed to acclimate to the Pfizer animal facilities for 1 week prior to the start of the study. On day one, retro-orbital blood samples were obtained and plasma glucose was determined as described hereinafter. […] Body weight was measured on days 1 and 5 of the study, and food consumption was assessed over the 5 day period.
(§3) On the morning of the last day of the study mice were dosed with test pyrazolopyrimidinone PDEV compound or vehicle at approximately 8:00 am. […] Plasma samples were stored at −80° C. until analyzed.
(§4) Plasma glucose and triglycerides were measured using the Alcyon Clinical Chemistry Analyzer (Abbott Laboratories, Abbott Park, Ill.) using kits supplied by Abbott. […]

Experiment [3] concerns ob/ob mice. Description: Plasma glucose in ob/ob mice, 5 day dosing. The experiment is classed as in vivo, mouse. Particulars: summary in words. The method, then:
as §1, §2, §3, §4

For the compound `CCCOc1ccc(S(=O)(=O)N2CCN(CC)CC2)cc1-c1nc2c(CC)n(Cc3ccccn3)nc2c(=O)[nH]1` [PDE5 A, 3-ethyl-5-[5-(4-ethylpiperazin-1-ylsulphonyl)-2-n-propoxyphenyl]-2-(pyridin-2-yl)methyl-2,6-dihydro-7H-pyrazolo[4,3-d]pyrimidin-7-one], the endometrial epithelial thickness result in experiment [1] is given as “increases endometrial epithelial thickness”.

For `CCCc1nn(C)c2c(=O)[nH]c(-c3cc(S(=O)(=O)N4CCN(C)CC4)ccc3OCC)nc12` [PDE5 C, 5-[2-ethoxy-5-(4-methyl-1-piperazinylsulphonyl)phenyl]-1-methyl-3-n-propyl-1,6-dihydro-7H-pyrazolo[4,3-d]pyrimidin-7-one], in experiment [2], the serum triglyceride levels entry is “reduce”. Also, in experiment [3], the plasma glucose levels entry is “reduce”.
